Laboratory results as given in PubChem BioAssay AID256 (DTP/NCI, 2004).
Where “and” joins values, the source holds several entries; their conditions need not be identical. Equal entries are not always repeated. Toxic doses and inconclusive results are not listed.

Test system: CD2F1 mice, L1210 leukemia ip, survival T/C
Test: NCI In Vivo Anticancer Drug Screen. Data for tumor model L1210 Leukemia (intraperitoneal) in CD2F1 (CDF1) mice
Details: higher = longer survival
In short: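 Vehicle-treated tumor-bearing mice served as controls (C) for compound-treated mice (T). Reported figure is T divided by C.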

[1] = endpoint: mean survival time, dose: 100.0 mg/kg/injection, schedule: Q01DX009 (ip), vehicle: saline with Tween-80
[2] = endpoint: mean survival time, dose: 100.0 mg/kg/injection, schedule: Q04DX003 (ip), vehicle: saline with Tween-80
[3] = endpoint: mean survival time, dose: 200.0 mg/kg/injection, schedule: Q01DX009 (ip), vehicle: saline with Tween-80
[4] = endpoint: mean survival time, dose: 200.0 mg/kg/injection, schedule: Q04DX003 (ip), vehicle: saline with Tween-80
[5] = endpoint: mean survival time, dose: 400.0 mg/kg/injection, schedule: Q04DX003 (ip), vehicle: saline with Tween-80
[6] = endpoint: mean survival time, dose: 50.0 mg/kg/injection, schedule: Q01DX009 (ip), vehicle: saline with Tween-80
[7] = endpoint: mean survival time, dose: 100.0 mg/kg/injection, schedule: Q04DX003 (ip), vehicle: saline
[8] = endpoint: mean survival time, dose: 200.0 mg/kg/injection, schedule: Q04DX003 (ip), vehicle: saline

`CCN(CC)CC(O)CNc1cc(C)nc(/N=C(\N)Nc2ccc(Cl)c(Cl)c2)n1` (centres undefined) was tested, and the T/C (endpoint: mean survival time, dose: 6.25 mg/kg/injection, schedule: Q01DX009 (ip), vehicle: saline with Tween-80) was 98 % of control, the T/C (endpoint: mean survival time, dose: 12.5 mg/kg/injection, schedule: Q01DX009 (ip), vehicle: saline with Tween-80) was 104 % of control and the T/C (endpoint: mean survival time, dose: 25.0 mg/kg/injection, schedule: Q01DX009 (ip), vehicle: saline with Tween-80) was 106 % of control.
With `CCCCCCCCCCCCCCCCCC(=O)NNCCO` the T/C [1] was 89 % of control, the T/C [2] was 94 % of control and the T/C [3] was 89 % of control. The T/C [4] was 93 % of control and the T/C [5] was 91 % of control.
For `COC1=CCc2c(OC)ccc(OC)c2C1`, the T/C (endpoint: mean survival time, dose: 12.5 mg/kg/injection, schedule: Q01DX009 (ip), vehicle: other) was 103 % of control, the T/C (endpoint: mean survival time, dose: 25.0 mg/kg/injection, schedule: Q01DX009 (ip), vehicle: other) was 103 % of control and the T/C (endpoint: mean survival time, dose: 50.0 mg/kg/injection, schedule: Q01DX009 (ip), vehicle: other) was 93 % of control. The T/C (endpoint: mean survival time, dose: 100.0 mg/kg/injection, schedule: Q01DX009 (ip), vehicle: other) was 95 % of control and the T/C (endpoint: mean survival time, dose: 200.0 mg/kg/injection, schedule: Q01DX009 (ip), vehicle: other) was 88 % of control.
In the case of `[CH3][Sb]([CH3])([CH3])([O]C(=O)CC#N)[O]C(=O)CC#N`, the T/C [2] is reported as 92 % of control, the T/C [4] is reported as 92 % of control and the T/C [5] is reported as 97 % of control.
`CC(=O)Nc1cc2ccccc2c2ccc3ccccc3c12` was tested, and the T/C (endpoint: mean survival time, dose: 100.0 mg/kg/injection, schedule: Q01DX001 (ip), vehicle: saline with Tween-80) was 89 % of control, the T/C [1] was 96 % of control and the T/C (endpoint: mean survival time, dose: 200.0 mg/kg/injection, schedule: Q01DX001 (ip), vehicle: saline with Tween-80) was 93 % of control. The T/C [3] was 95 % of control, the T/C (endpoint: mean survival time, dose: 400.0 mg/kg/injection, schedule: Q01DX001 (ip), vehicle: saline with Tween-80) was 102 % of control and the T/C (endpoint: mean survival time, dose: 400.0 mg/kg/injection, schedule: Q01DX009 (ip), vehicle: saline with Tween-80) was 96 % of control.
For `CN(C)c1nc2c(c(=O)n(C)c(=O)n2C)n1C`, the T/C (endpoint: mean survival time, dose: 12.5 mg/kg/injection, schedule: Q01DX005 (ip), vehicle: distilled water + Tween-80) was 94 % of control, the T/C (endpoint: mean survival time, dose: 25.0 mg/kg/injection, schedule: Q01DX005 (ip), vehicle: distilled water + Tween-80) was 93 % of control and the T/C (endpoint: mean survival time, dose: 50.0 mg/kg/injection, schedule: Q01DX005 (ip), vehicle: distilled water + Tween-80) was 93 % of control. For the same molecule, the T/C (endpoint: mean survival time, dose: 100.0 mg/kg/injection, schedule: Q01DX005 (ip), vehicle: distilled water + Tween-80) was 88 % of control.
In the case of `CCCCNc1cc(Nc2ccc(Br)cc2)nc(N)n1`, the T/C [6] is reported as 98 % of control, the T/C [1] is reported as 97 % of control and the T/C [3] is reported as 98 % of control.
For `O=C(c1ccccc1)c1ccc(OCCOc2ccc(C(=O)c3ccccc3)cc2)cc1`, the T/C [2] was 96 % of control, the T/C [4] was 93 % of control and the T/C [5] was 93 % of control.
With `Nc1nc2ccc(NCc3ccc(C(=O)NC(CCC(=O)O)C(=O)O)cc3)cc2c(=O)[nH]1` (centres undefined) the T/C (endpoint: median survival time, dose: 6.25 mg/kg/injection, schedule: Q01DX009 (ip), vehicle: saline with Tween-80) was 100 % of control and 101 % of control, the T/C (endpoint: median survival time, dose: 12.5 mg/kg/injection, schedule: Q01DX009 (ip), vehicle: saline with Tween-80) was 100 % of control and 108 % of control (2×) and the T/C (endpoint: median survival time, dose: 25.0 mg/kg/injection, schedule: Q01DX009 (ip), vehicle: saline with Tween-80) was 115 % of control and 118 % of control and 119 % of control. The T/C (endpoint: median survival time, dose: 50.0 mg/kg/injection, schedule: Q01DX009 (ip), vehicle: saline with Tween-80) was 155 % of control.
In the case of `NCC(=O)Nc1ccc(O)cc1`, the T/C (endpoint: mean survival time, dose: 180.0 mg/kg/injection, schedule: Q04DX003 (ip), vehicle: saline) is reported as 104 % of control and the T/C (endpoint: mean survival time, dose: 405.0 mg/kg/injection, schedule: Q04DX003 (ip), vehicle: saline) is reported as 98 % of control.
In the case of `CC(=O)C(C)N(C)C` (centres undefined), the T/C [7] is reported as 105 % of control, the T/C [8] is reported as 100 % of control and the T/C (endpoint: mean survival time, dose: 400.0 mg/kg/injection, schedule: Q04DX003 (ip), vehicle: saline) is reported as 96 % of control.
With `CC(=O)OCC(=O)[C@@]12OC(C)(C)O[C@@H]1C[C@H]1[C@@H]3CC(C=O)=C4C=C(OCCCl)CC[C@]4(C)[C@@]3(F)[C@@H](O)C[C@@]12C` the T/C (endpoint: mean survival time, dose: 100.0 mg/kg/injection, schedule: Q04DX003 (ip), vehicle: acetone) was 103 % of control, the T/C (endpoint: mean survival time, dose: 200.0 mg/kg/injection, schedule: Q04DX003 (ip), vehicle: acetone) was 105 % of control and the T/C (endpoint: mean survival time, dose: 400.0 mg/kg/injection, schedule: Q04DX003 (ip), vehicle: acetone) was 102 % of control.
`CSc1nc(NC(C)C)nc(NC(C)C)n1` was tested, and the T/C [6] was 117 % of control, the T/C [1] was 109 % of control and the T/C [7] was 92 % of control. For the same molecule, the T/C [3] was 111 % of control and the T/C [8] was 103 % of control.
